Where a name gives a salt, the structure may show the parent alone.

Holding throughout (assay type): in vivo
Assay [1] has as its system Lettuce seeds. As to the kind of experiment: Filter paper bioassay on germination and early development of Lettuce seeds. As to conditions: lowest concentration causing malformation of radicle or shoots, visually assessed six days after beginning, 0 to 1 mmol/l; for minimal effective concentration: 144 h, read-out: MEC, score (Minimal Effective Concentration, activity score) (converted). The method, then:
Materials: Seeds of Lettuce R. (Super-Jericho, non-sterilized) were obtained from Ben Shahar Moshe Ltd., 99% purity. The test compounds listed in Table 3 below were synthesized de novo or purchased from different vendors. Bioassays: Filter Paper Bioassays with Lettuce seeds were performed following Bertin et al. 2009 with modifications as described below. Seeds were placed on Whatman no. 1 filter paper (Whatman, Middlesex, U.K.) in Petri dishes (10 seeds per plate) with 2.0 ml of an aqueous solution of test material in a concentration ranging from 0 (control) to 1 mmol/l. The Petri dishes were arranged in a tray tilted at a 45-degree angle and were kept in the dark for 48 hours. Then trays with plates were transferred to the growth chamber with a 6/18 dark/light cycle for four days. Each experiment was performed in at least two repeats.
The development of plants' radicles and shoots was visually assessed six days after the beginning of the test to determine the Minimal Effective Concentration (MEC) of a test material. In the context of the invention, MEC is defined as the lowest concentration level of a test material that caused deviation (malformation of radicle or shoots).

Assay [2] has as its system Silybum. Briefly: Post-emergence herbicidal effect on potted weeds. As to conditions: 2-3 true leaves, up to 5 mg/pot, scale 0 (dead plants) to 5 (healthy, as control). The method, then:
(§1) Weed seeds were sawn in 0.3-liter pots containing medium-heavy clay-loam soil from organic fields (55% clay, 23% silt, 20% sand, 2% organic matter, pH 7.1). The experiment was conducted in a completely randomized design. Each treatment was replicated three times (3 pots). Each compound was typically tested on a weed panel which included Amaranth, Abutilon, Malva, Silybum, and Sinapis. The herbicides were applied at doses from 0 (control) to 5 mg/pot. The herbicides were applied on grown plants at stage 2-3 true leaves (post-emergence treatment). The plants were grown in the mesh house during the entire experiment. Plant development at 6, 12, 19, 26, and 32 days after application (DAA) was evaluated on a scale of 0 to 5, in which 0 represents dead plants, and 5 represents healthy plants similar or not different from Control. In the context of the invention, the herbicidal effect was expressed as a score calculated as an average of assessments of plants' vigor, height, and leaf color.

In assay [3] the test system is Lactuca. Briefly: Post-emergence herbicidal effect on potted weeds. As to conditions: 2-3 true leaves, up to 5 mg/pot, scale 0 (dead plants) to 5 (healthy, as control). The method, then:
as §1

The subject of assay [4] is Malva. Briefly: Post-emergence herbicidal effect on potted weeds. As to conditions: 2-3 true leaves, up to 5 mg/pot, scale 0 (dead plants) to 5 (healthy, as control). The method, then: as §1
In assay [5] the test system is Amaranth. Briefly: Post-emergence herbicidal effect on potted weeds. As to conditions: 2-3 true leaves, up to 5 mg/pot, scale 0 (dead plants) to 5 (healthy, as control). The method, then:
as §1

The test system of assay [6] is Sinapis. Briefly: Post-emergence herbicidal effect on potted weeds. As to conditions: 2-3 true leaves, up to 5 mg/pot, scale 0 (dead plants) to 5 (healthy, as control). The method, then:
as §1

For assay [7], the system named is Abutilon. As to the kind of experiment: Post-emergence herbicidal effect on potted weeds. As to conditions: 2-3 true leaves, up to 5 mg/pot, scale 0 (dead plants) to 5 (healthy, as control). The method, then:
as §1

The subject of assay [8] is Trifolium. Briefly: Post-emergence herbicidal effect on potted weeds. As to conditions: 2-3 true leaves, up to 5 mg/pot, scale 0 (dead plants) to 5 (healthy, as control). The method, then: as §1

Take `O=C(O)CSc1nc(Br)ccc1Br` [compound 7124, [(3,6-dibromopyridin-2-yl)sulfanyl]acetic acid]: in assay [1], the minimal effective concentration is 1 µM.
On the same count and under the same terms, under `O=C(O)CSc1cccc(Br)n1` [compound 6688, [(6-bromopyridin-2-yl)sulfanyl]acetic acid] stands 1 µM; under `CCOC(=O)CSc1cccc(Br)n1` [compound 6693, ethyl [(6-bromopyridin-2-yl)sulfanyl]acetate], 1 µM.
As to `CCOCCOCCOC(=O)CSc1ccc(Br)c(Br)n1` [compound 7139, 2-(2-ethoxyethoxy)ethyl [(5,6-dibromopyridin-2-yl)sulfanyl]acetate], in assay [1], the minimal effective concentration is 1 µM.
On the same count and under the same terms, to `CCCCCCCCOC(=O)CSc1cccc(Br)n1` [compound 7106, octyl [(6-bromopyridin-2-yl)sulfanyl]acetate] belongs 10 µM; to `CCCCOC(=O)C[S+]([O-])c1ccc(Br)c(Br)n1` (stereo not shown) [compound 6703, butyl (5,6-dibromopyridine-2-sulfinyl)acetate], 10 µM.
On the same count and under the same terms, under `CCCCOC(=O)CSc1nc(Cl)ccc1Br` [compound 6694, butyl [(3-bromo-6-chloropyridin-2-yl)sulfanyl]acetate] stands 1 µM; under `CCOC(=O)CSc1csc(Cl)n1` [compound 5850, ethyl 2-[(2-chloro-1,3-thiazol-4-yl)sulfanyl]acetate], 10 µM; under `O=C(O)CNc1cccc(Br)n1` [compound 6702, 2-[(6-bromopyridin-2-yl)amino]acetic acid], 1 µM.
On the same count and under the same terms, to `O=C(O)CNc1c(Cl)csc1Cl` [compound 7147, 2-[(2,4-dichlorothiophen-3-yl)amino]acetic acid hydrochloride] belongs 10 µM; to `O=C(O)CS(=O)(=O)c1csc(Cl)n1` [compound 5851, (2-chloro-1,3-thiazol-4-sulfonyl)acetic acid], 1 µM; to `O=C(O)CS(=O)(=O)c1nc(Cl)sc1Cl` [compound 7138, (2,5-dichloro-1,3-thiazol-4-sulfonyl)acetic acid], 10 µM.
On to `CCOC(=O)CSc1ccc(F)c(Br)n1` [compound 7114, ethyl 2-[(6-bromo-5-fluoropyridin-2-yl)sulfanyl]acetate], for which the “Average Herbicidal Effect, score” value in assay [2] is given as 5; in assay [3], 5; in assay [4], 4; in assay [5], 3; in assay [6], 4; in assay [7], 5. In assay [8], the “Average Herbicidal Effect, score” value was determined as 4. The minimal effective concentration in assay [1] is < 1 µM.
Consider `CC(Sc1ccc(Br)c(Br)n1)C(=O)O` (stereo not shown) [compound 7182, 2-[(5,6-dibromopyridin-2-yl)sulfanyl]propanoic acid], for which the minimal effective concentration in assay [1] was 10 µM.
On the same count and under the same terms, under `O=C(O)CCCCSc1ccc(Br)c(Br)n1` [compound 7187, 5-[(5,6-dibromopyridin-2-yl)sulfanyl]pentanoic acid] stands 1 µM.
As for `O=C(Cc1ccccc1)NCCCCNc1cccc(Br)n1` [compound 7123, N-{4-[(6-bromopyridin-2-y1)amino]butyl}-2-phenylacetamide], the activity score in assay [1] is listed as 4 (0.01 mM).
Turning to `O=C(O)CNc1ccc(F)c(Br)n1` [compound 7148, 2-[(6-bromo-5-fluoropyridin-2-yl)amino]acetic acid], the minimal effective concentration in assay [1] was 10 µM.
Turning to `O=C(O)C[S+]([O-])c1nc(Cl)sc1Cl` (stereo not shown) [compound 7137, (2,5-dichloro-1,3-thiazole-4-sulfinyl)acetic acid], the minimal effective concentration in assay [1] was 10 µM.
Still for that read-out and setting: under `O=C(O)CCSc1ccc(Br)c(Br)n1` [compound 7178, 3-[(5,6-dibromopyridin-2-yl)sulfanyl]propanoic acid] stands 1 µM; under `O=C(O)CSc1nc(Cl)cs1` [compound 7109, 2-[(4-chloro-1,3-thiazol-2-yl)sulfanyl]acetic acid], 10 µM.
On the same count and under the same terms, under `CCCCOC(=O)CSc1ccc(Br)c(Br)n1` [compound 6700, butyl [(5,6-dibromopyridin-2-yl)sulfanyl]acetate] stands 1 µM.
Regarding `CCOCCOCCOC(=O)COc1ccc(Br)c(Br)n1` [compound 7172, 2-(2-ethoxyethoxy)ethyl [(5,6-dibromopyridin-2-yl)oxy]acetate], the minimal effective concentration in assay [1] is 1 µM.
For `O=C(O)CNc1ccc(Br)c(Br)n1` [compound 7122, 2-[(5,6-dibromopyridin-2-yl)amino]acetic acid], in assay [1], the minimal effective concentration is 1 µM.
Still for that read-out and setting: to `COC(=O)Cc1nc(Cl)sc1C#N` [compound 7167, methyl 2-(2-chloro-5-cyano-1,3-thiazol-4-yl)acetate] belongs 10 µM; to `CCOC(=O)CSc1nc(Cl)sc1Cl` [compound 7119, ethyl 2-[(2,5-dichloro-1,3-thiazol-4-yl)sulfanyl]acetate], 10 µM; to `O=C(O)CSc1ccc(F)c(Br)n1` [compound 7151, [(6-bromo-5-fluoropyridin-2-yl)sulfanyl]acetic acid], < 1 µM.
Consider `O=C(O)CC#Cc1nc(Cl)sc1Cl` [compound 7145, 4-(2,5-dichloro-1,3-thiazol-4-yl)but-3-ynoic acid], for which the minimal effective concentration in assay [1] was 1 µM.
The same measure, in the same setting: to `O=C(Cc1ccccc1)NCCCNc1cccc(Br)n1` [compound 7121, N-{3-[(6-bromopyridin-2-yl)amino]propyl}-2-phenylacetamide] belongs 10 µM.
The same measure, in the same setting: to `O=C(O)c1csc(Cl)n1` [compound 7194, 2-chloro-1,3-thiazole-4-carboxylic acid] belongs 100 µM.
On to `CCOC(=O)c1c[nH]cc1CC#N` [compound 7131, ethyl 4-(cyanomethyl)-1H-pyrrole-3-carboxylate], for which the minimal effective concentration in assay [1] is 10 µM.
On the same count and under the same terms, to `CCOC(=O)CSc1nc(Br)ccc1F` [compound 7160, ethyl 2-[(6-bromo-3-fluoropyridin-2-yl)sulfanyl]acetate] belongs < 1 µM; to `O=C(O)CCCCNc1ccc(F)c(Br)n1` [compound 7165, 5-[(6-bromo-5-fluoropyridin-2-yl)amino]pentanoic acid], 10 µM.
With `O=C(O)CCCSc1ccc(Br)c(Br)n1` [compound 7174, 4-[(5,6-dibromopyridin-2-yl)sulfanyl]butanoic acid], in assay [1], the minimal effective concentration is < 1 µM.
For `CCOC(=O)C(Cl)(Cl)c1csc(Cl)n1` [compound 7188, ethyl dichloro(2-chloro-1,3-thiazol-4-yl)acetate], in assay [1], the minimal effective concentration is 100 µM.
Regarding `COC(=O)Cc1ncsc1C#N` [compound 7168, methyl 2-(5-cyano-1,3-thiazol-4-yl)acetate], the minimal effective concentration in assay [1] is 10 µM.
Take `CCOC(=O)Cc1ccc(F)c(Br)n1` [compound 7117, ethyl (6-bromo-5-fluoropyridin-2-yl)acetate]: the minimal effective concentration in assay [1] is 10 µM.
Turning to `CCOC(=O)Sc1csc(Cl)n1` [compound 7189, S-(2-chloro-1,3-thiazol-4-yl) O-ethyl carbonothioate], in assay [1], the minimal effective concentration was 10 µM.
On the same count and under the same terms, under `CCOC(=O)CSc1nc(Cl)cs1` [compound 7112, ethyl [(4-chloro-1,3-thiazol-2-yl)sulfanyl]acetate] stands 10 µM; under `O=C(O)CNc1nc(Cl)cs1` [compound 7125, 2-[(4-chloro-1,3-thiazol-2-yl)amino]acetic acid], 10 µM.
On the same count and under the same terms, under `NCCCCNc1ccc(Br)c(Br)n1` [compound 6709, N1-(5,6-dibromopyridin-2-yl)butane-1,4-diamine] stands 10 µM; under `O=C(O)CCCCNc1nc(Br)c(Br)cc1F` [compound 7170, 5-[(5,6-dibromo-3-fluoropyridin-2-yl)amino]pentanoic acid], 1 µM.
For `O=C(O)CNc1nc(Br)c(Br)cc1F` [compound 7169, 2-[(5,6-dibromo-3-fluoropyridin-2-yl)amino]acetic acid], the minimal effective concentration in assay [1] was 1 µM.

(Values after patent US20250374926A1, “NOVEL DERIVATIVES OF NON-CODED AMINO ACIDS AND THEIR USE IN CROP PROTECTION” (FORTEPHEST LTD., priority 2022, published 2025).)
